Test results from patent US10226503B2, “Plant extract composition for reducing topical fat and promoting weight loss as well as applications thereof” (Caliway Biopharmaceuticals Co., Ltd., priority 2014, dated 2019).

Experiments:
[1] = tested on: lower inguinal subcutaneous fat; experiment: Embodiment 10: resveratrol:curcumin ratio effect (with ELP) on subcutaneous fat of high-fat diet rats; assay type: in vivo, Sprague-Dawley rats; settings: 5 mg/mL with ELP, injected as in Embodiment 9, relative to HFD group 100±22.3%
Source text: The bilateral lower inguinal subcutaneous fat pads of rats were dissected and weighed, and the weights of the bilateral lower inguinal subcutaneous fat pads were summed to calculate the amount of lower inguinal subcutaneous fat. […] The data were presented as mean±SD and analyzed by one-way ANOVA. Statistical results were shown as symbols or letters. Different symbols or letters indicates statistically significant difference (p<0.05), and identical symbols or letters indicates no statistically significant difference (p>0.05).
The preparation of pharmaceutical composition (curcumin solution, resveratrol solution, UL003C solution, UL003R solution, UL005 solution, UL006 solution, UL003C6 solution, or UL003R4 solution) in each group was roughly the same as the experimental procedure in Experiment 9. The only differences were the ratio of resveratrol and curcumin. In this experiment, the guideline of adding all of the ratio of resveratrol and curcumin, the weight of ELP, and the weight of normal saline for injection was shown in Table 1.
In this experiment, the ratios of resveratrol to curcumin in the first group to the eighth group were 0:1, 1:0, 1:19, 9:1, 1:1, 1:30, 1:50, 20:1, respectively, and the final concentrations of resveratrol and curcumin in the pharmaceutical compositions prepared in the first to the eighth group were 5 mg/mL. […]

[2] = tested on: adipose tissue in the inferior inguinal region; experiment: Embodiment 10: observation of the injected inferior inguinal region after dissection; assay type: in vivo, Sprague-Dawley rats; settings: FIG. 11A-F
Source text: There were 9 groups in this experiment, that is, the HFD group, the curcumin group, the resveratrol group, the UL003C group, the UL003R group, the UL005 group, the UL006 group, the UL003C6 group, and the UL003R4 group. The rats were fed and injected in the same manner described in Embodiment 9.

[3] = tested on: mature adipocytes (3T3-L1); experiment: Adipocyte apoptosis assay (V), Annexin V/PI flow cytometry; assay type: cell-based; settings: 50 ppm, 24 hours, DMSO control 5.14±2.05%
Experimental: 3T3-L1 cells were incubated in 12-well plates with 1×10^5 cells per well. The medium was replaced with a DMI medium containing 5 μg/ml of insulin, 0.1 μM of dexamethasone, and 0.5 mM of 3-isobutyl-1-methylxanthine (referred as IBMX) on the third day of incubation. After seven days incubation in the medium containing differentiation agent and waiting until the adipocyte cells matures, with the exception of the DMSO solvent control group, 50 ppm of curcumin, resveratrol, composition UL003C6, composition UL003C5, composition UL003C4, composition UL003C3, composition UL003C2, composition UL003C1, composition UL003B, composition UL003R1, composition UL003R2, and composition UL003R3 were added to different wells respectively; there are 13 groups in the experiment, and four replicates were performed in each group.
Please refer to Table 1, which presents the experimental matters and their final concentration in each group. […]
After administration process and 24 hours incubation, cells were collected and Annexin V/PI stain was performed. Cell apoptosis was analyzed by flow cytometry, wherein Annexin V−PI− cells represented the number of the survival mature adipocytes, and Annexin V+PI+ cells represented the number of the apoptotic mature adipocytes; this method is used to compare the apoptosis degree induced by the experimental matters in each group.

[4] = Embodiment 10: resveratrol:curcumin ratio effect (with ELP) on body weight gain of high-fat diet rats; assay type: in vivo, Sprague-Dawley rats; settings: 5 mg/mL with ELP, relative to HFD group 100.0±25.7%
Experimental: The body weight of each rat was recorded and defined as the “post-experimental body weight” of each rat. The “total body weight gain” of each rat was obtained by subtracting its “pre-experimental body weight” from its “post-experimental body weight”. The “relative weight gain” was obtained by dividing the total body weight gain of each group by the total body weight gain of the HFD group.
The only differences were the ratio of resveratrol and curcumin.
In this experiment, the ratios of resveratrol to curcumin in the first group to the eighth group were 0:1, 1:0, 1:19, 9:1, 1:1, 1:30, 1:50, 20:1, respectively, and the final concentrations of resveratrol and curcumin in the pharmaceutical compositions prepared in the first to the eighth group were 5 mg/mL. That is, the preparation method of pharmaceutical composition in the first to the eighth group, the weight ratios of resveratrol to curcumin were 0:1, 1:0, 1:19, 9:1, 1:1, 1:30, 1:50, 20:1, respectively, and the final concentrations of resveratrol and curcumin in the prepared pharmaceutical compositions were 5 mg/mL. Wherein, when the final concentration of drug was presented as mg/mL, it indicated the number of milligrams of resveratrol and curcumin per milliliter of pharmaceutical composition.

[5] = tested on: mature adipocytes (3T3-L1); experiment: Adipocyte apoptosis assay (IV), Annexin V/PI flow cytometry; assay type: cell-based; settings: 100 ppm, 24 hours
Experimental: In this embodiment, the effect of composition UL003C in the present invention on mature adipocytes apoptosis promotion was compared with that of the well-known sodium deoxycholate. In this embodiment, 3T3-L1 cells were incubated in 12-well plates with 1×10^5 cells per well. The medium was replaced with an incubation fluid containing 5 μg/ml of insulin differentiation agent, 1 μM of dexamethasone, and 0.5 mM of 3-isobutyl-1-methylxanthine on the fourth day of incubation. After four days incubation in the incubation fluid containing differentiation agent and waiting until the adipocyte cells matures, with the exception of the DMSO solvent control group, 100 ppm of composition UL003C and sodium deoxycholate were added to different wells respectively; there are three groups in the experiment, and three replicates were performed in each group. After administration process and 24 hours incubation, cells were collected and Annexin V/PI stain was performed. Cell apoptosis was analyzed by flow cytometry, wherein Annexin V−PI− cells represented the number of the survival mature adipocytes, and Annexin V+PI+ cells represented the number of the apoptotic mature adipocytes; this method is used to compare the apoptosis degree induced by the experimental matters in the two groups.

Compound	relative weight of the lower inguinal subcutaneous fat [1] [%]	ulcer / curcumin precipitation in the inferior inguinal region (injection site) [2]	percentage of apoptotic cells [3] [%]	relative weight gain [4] [%]	mature adipocytes apoptosis compared to DMSO solvent control group [5]
Oc1ccc(C=Cc2cc(O)cc(O)c2)cc1 [resveratrol]	85.7±5.1	ulcer	8.48±3.23	91.7±11.4	–
sodium deoxycholate	–	–	–	–	no significant difference
COc1cc(/C=C/C(=O)CC(=O)/C=C/c2ccc(O)c(OC)c2)ccc1O [curcumin]	90.4±12.6	curcumin precipitation was observed	15.43±4.31	103.6±7.2	–
